Results published in patent US4257773A, “Assay method and compounds” (Burroughs Wellcome Co., priority 1979, dated 1981).

Tested on: opiate receptor
Experiment: Specific binding affinity of radio-iodinated peaks for the opiate receptor
Conditions: monoiodinated (first peak) compared with diiodinated (second peak) compound
Protocol: The material comprising this peak was applied to a Sephadex 2-(diethylamino)ethyl ether column and eluted with sodium borate buffer (12.5 mM, pH 9.0, 0.1 N sodium chloride).

With CC(C)C[C@H](NC(=O)[C@H](Cc1ccccc1)NC(=O)CNC(=O)[C@@H](C)NC(=O)[C@@H](N)Cc1ccc(O)c([125I])c1)C(=O)O [material of the first peak, H.Tyr(3-^125 I).D-Ala.Gly.Phe.Leu.OH] the “specific binding affinity (for the opiate receptor)” value was “greater specific binding affinity (for the opiate receptor) than that of the second peak”.
